One series has as its system BALB/c mice. The series can be described thus: In vivo mRNA delivery in mice with DNPs, whole-body bioluminescence imaging (IVIS).
Another series deals with liver. The series can be described thus: In vivo mRNA delivery, IVIS imaging of organs: liver. More on the design: species or system mice; key to Organs with luminescence: liver: strong: Strong meant the luminescence intensity in that organ was relatively high, compared to other organs; weak: Weak meant the luminescence intensity in that organ was relatively low, compared to other organs. To be noted: for Organs with luminescence: liver: Table 17, mice, IVIS, 4-6 h after injection, intensity relative to other organs; for Organs with luminescence: liver (weak/strong): Table 14.

A short description of series [1]: Dimensions (size, PDI) of DNPs co-assembled from IAJDs and Luc-mRNA by DLS. The series is classed as physicochemical. A digest of the protocol:
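Hydrodynamic size and PDI were read by dynamic light scattering at 23 °C, 175° backscatter, 633 nm. Particles formed by fast injection of ethanolic IAJD stock (80 mg/mL) into nucleoside-modified luciferase mRNA (stock 4.0 mg/mL) in 10 mM acetate pH 4.0, 5 s vortex.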

The mark [2] stands for this setting: Table 20, nonsymmetric IAJDs and MC3-Luc-mRNA.
Where [3] appears, read: Table 16, DNPs from IAJD 4 mg/mL and Luc-mRNA 0.10 mg/mL by injection in acetate buffer (10 mM, pH 4.0).
Setting [4] is: Table 17, DNPs used in vivo, IAJD 4 mg/mL, Luc-mRNA 0.10 mg/mL, acetate pH 4.0.
[5] abbreviates: Table 12, DNPs, IAJD 4 mg/mL + Luc-mRNA 0.10 mg/mL, acetate buffer 10 mM pH 4.0.
The mark [6] stands for this setting: Table 13, DNPs, IAJD 4 mg/mL + Luc-mRNA 0.10 mg/mL, acetate buffer pH 4.0.
[7] abbreviates: Table 14, DNPs, IAJD 4 mg/mL + Luc-mRNA 0.10 mg/mL, acetate buffer pH 4.0.

Here are results for 14 molecules from patent publication US20240252677A1, “ONE-COMPONENT DELIVERY SYSTEM FOR NUCLEIC ACIDS” (The Trustees of the University of Pennsylvania, priority 2021, published 2024).

On to `CCCCCCCCCCCCCCCCCCOc1cc(COC(=O)CCCN2CCN(CCO)CC2)cc(OCCCCCCCCCCCCC)c1` [IAJD 178, 3-(Octadecyloxy)-5-(tridecyloxy)benzyl 4-(4-(2-hydroxyethyl)piperazin-1-yl)butanoate], for which the “In vivo activity (total flux, p/s)” value in the series on BALB/c mice (Table 19, nonsymmetric IAJDs) is reported as 4.05 × 10^8 p/s; with BALB/c mice (setting [2]), 4.05 × 10^8 p/s. For the same molecule, the total flux luminescence in the series on BALB/c mice (mice, in vivo Luc-mRNA transfection) was 4.05×10^8 p/s. The “in vivo activity, times higher than symmetric IAJD with the same headgroup” value with BALB/c mice (nonsymmetric vs symmetric alkyl chains (178 vs 99 (18/18))) turned out to be 90.2 times. For the same molecule, the “in vivo activity, times lower than of MC3” value in the series with BALB/c mice (total flux luminescence vs MC3) amounted to 4.2 times. The “Organs with luminescence: liver” value with liver is on record as “liver (weak),”. Further, the PDI in series [1] (setting [3]) and in series [1] (setting [4]) was 0.223 each time. Moreover, the “Size (d, nm)” value in series [1] (setting [3]) and in series [1] (setting [4]) was 344 nm each time.

As for `CCCCCCCCCCCCCCCCCCOc1cc(COC(=O)CCCN2CCN(C)CC2)cc(OCCCCCCCCCCCCC)c1` [IAJD 177, 3-(Octadecyloxy)-5-(tridecyloxy)benzyl 4-(4-methylpiperazin-1-yl)butanoate], the “In vivo activity (total flux, p/s)” value is on record as 9.18 × 10^7 p/s in the series with BALB/c mice (Table 19, nonsymmetric IAJDs) and 9.18 × 10^7 p/s in the series on BALB/c mice (setting [2]). Also, in the series with liver, the “Organs with luminescence: liver” value is on record as “liver (strong),”. Moreover, the PDI in series [1] (setting [3]) and in series [1] (setting [4]) was 0.275 in each case. The “Size (d, nm)” value in series [1] (setting [3]) and in series [1] (setting [4]) was 159 nm in each case.

Consider `CCCCCCCCCCCCCCCOc1cc(COC(=O)CCCN2CCN(C)CC2)cc(OCCCCCCCCCCCCCC)c1` [IAJD 147, 3-(Pentadecyloxy)-5-(tetradecyloxy)benzyl 4-(4-methylpiperazin-1-yl)butanoate], for which, in the series on BALB/c mice (Table 19, nonsymmetric IAJDs), the “In vivo activity (total flux, p/s)” value was 9.24 × 10^6 p/s. Moreover, the “Organs with luminescence: liver” value in the series with liver is given as “liver (weak),”. Besides, in series [1] (setting [3]), the PDI was determined as 0.287 and the “Size (d, nm)” value was 144 nm. Moreover, in series [1] (setting [4]), the PDI turned out to be 0.287 and the “Size (d, nm)” value was 144 nm.

Regarding `CCCCCCCCCCCCCCOc1cc(COC(=O)CCCN2CCN(CCO)CC2)cc(OCCCCCCCCCCC)c1` [IAJD 125, 3-(Tetradecyloxy)-5-(undecyloxy)benzyl 4-(4-(2-hydroxyethyl)piperazin-1-yl)butanoate], the “In vivo activity (total flux, p/s)” value in the series on BALB/c mice (Table 19, nonsymmetric IAJDs) is recorded as 2.15 × 10^8 p/s; with BALB/c mice (setting [2]) it was 2.15 × 10^8 p/s. In the series with liver, the “Organs with luminescence: liver” value is listed as “liver (weak),”. Also, the PDI in series [1] (setting [3]) and in series [1] (setting [4]) was 0.300 each time. In addition, the “Size (d, nm)” value in series [1] (setting [3]) and in series [1] (setting [4]) was 255 nm each time.

Regarding `CCCCCCCCCCCCCCCOc1cc(COC(=O)CCCN2CCN(CCO)CC2)cc(OCCCCCCCCCCCC)c1` [IAJD 144, 3-(Dodecyloxy)-5-(pentadecyloxy)benzyl 4-(4-(2-hydroxyethyl)piperazin-1-yl)butanoate], the “In vivo activity (total flux, p/s)” value in the series on BALB/c mice (Table 19, nonsymmetric IAJDs) was 1.39 × 10^7 p/s. The “Organs with luminescence: liver” value in the series with liver was “liver (weak),”. In addition, the PDI in series [1] (setting [3]) and in series [1] (setting [4]) was 0.432 in each case. Moreover, the “Size (d, nm)” value in series [1] (setting [3]) and in series [1] (setting [4]) was 236 nm in each case.

With `CCCCCCCCCCCCCCCOc1cc(COC(=O)CCCN2CCN(CCO)CC2)cc(OCCCCCCCCCCCCC)c1` [IAJD 146, 3-(Pentadecyloxy)-5-(tridecyloxy)benzyl 4-(4-(2-hydroxyethyl)piperazin-1-yl)butanoate], the “In vivo activity (total flux, p/s)” value in the series on BALB/c mice (Table 19, nonsymmetric IAJDs) is 4.70 × 10^7 p/s. Further, the “Organs with luminescence: liver” value in the series with liver was “liver (strong),”. In addition, in series [1] (setting [3]), the PDI amounted to 0.276 and the “Size (d, nm)” value was 231 nm. For the same molecule, in series [1] (setting [4]), the PDI was found to be 0.276 and the “Size (d, nm)” value turned out to be 231 nm.

In the case of `CCCCCCCCCCCCCCCOc1cc(COC(=O)CCCN2CCN(C)CC2)cc(OCCCCCCCCCC)c1` [IAJD 141, 3-(Decyloxy)-5-(pentadecyloxy)benzyl 4-(4-methylpiperazin-1-yl)butanoate], the “In vivo activity (total flux, p/s)” value with BALB/c mice (Table 19, nonsymmetric IAJDs) was 2.06 × 10^7 p/s. In addition, the “Organs with luminescence: liver” value with liver was “liver (strong),”. Also, in series [1] (setting [3]), the PDI is 0.313 and the “Size (d, nm)” value is on record as 158 nm. In series [1] (setting [4]), the PDI amounted to 0.313 and the “Size (d, nm)” value was 158 nm.

`CCCCCCCCCCCCCOc1cc(COC(=O)CCCN2CCN(CCO)CC2)cc(OCC(CC)CCCC)c1` (stereo not drawn) [IAJD 162, 3-((2-Ethylhexyl)oxy)-5-(tridecyloxy)benzyl 4-(4-(2-hydroxyethyl)piperazin-1-yl)butanoate]: the “In vivo activity (total flux, p/s)” value was 2.03 × 10^8 p/s in the series on BALB/c mice (Table 19, nonsymmetric IAJDs) and 2.03 × 10^8 p/s in the series with BALB/c mice (setting [2]). Moreover, the “Organs with luminescence: liver” value in the series on liver is given as “liver (weak),”. For the same molecule, the PDI in series [1] (setting [3]) and in series [1] (setting [4]) was 0.301 in each case. The “Size (d, nm)” value in series [1] (setting [3]) and in series [1] (setting [4]) was 191 nm each time.

As to `CCCCCCCCCCCCCCCCOc1cc(COC(=O)CCCN2CCN(C)CC2)cc(OCCCCCCCCCCC)c1` [IAJD 86, 3-(Hexadecyloxy)-5-(undecyloxy)benzyl 4-(4-methylpiperazin-1-yl)butanoate], the “In vivo activity (total flux, p/s)” value with BALB/c mice (Table 19, nonsymmetric IAJDs) was 4.73 × 10^7 p/s. In addition, the “Organs with luminescence: liver (weak/strong)” value (“Organs … (weak/strong)” below) in the series on liver (imaging 5 h after injection) is recorded as “liver (strong),”. The “Organs with luminescence: liver” value with liver is recorded as “liver (strong),”. Also, the PDI in series [1] (setting [5]), in series [1] (setting [6]), in series [1] (setting [7]) and in series [1] (setting [4]) was 0.234 in each case. For the same molecule, the “Size (d, nm)” value in series [1] (setting [5]), in series [1] (setting [6]), in series [1] (setting [7]) and in series [1] (setting [4]) was 91 nm in each case.

Turning to `CCCCCCCCCCCCCCOc1cc(COC(=O)CCCN2CCN(C)CC2)cc(OCCCCCCCCCCC)c1` [IAJD 105, 3-(Tetradecyloxy)-5-(undecyloxy)benzyl 4-(4-methylpiperazin-1-yl)butanoate], the “In vivo activity (total flux, p/s)” value in the series on BALB/c mice (Table 19, nonsymmetric IAJDs) is 4.74 × 10^7 p/s. Also, the “Organs … (weak/strong)” value in the series on liver (imaging 6 h after injection) is reported as “liver (strong),”. For the same molecule, the “Organs with luminescence: liver” value in the series on liver is recorded as “liver (strong),”. Moreover, the PDI in series [1] (setting [5]), in series [1] (setting [6]), in series [1] (setting [7]) and in series [1] (setting [4]) was 0.294 in each case. For the same molecule, the “Size (d, nm)” value in series [1] (setting [5]), in series [1] (setting [6]), in series [1] (setting [7]) and in series [1] (setting [4]) was 94 nm throughout.

In the case of `CCCCCCCCCCCCCCCCCCOc1cc(COC(=O)CCCN2CCN(C)CC2)cc(OCCCCCCCCCCC)c1` [IAJD 81, 3-(Octadecyloxy)-5-(undecyloxy)benzyl 4-(4-methylpiperazin-1-yl)butanoate], the “In vivo activity (total flux, p/s)” value in the series on BALB/c mice (Table 19, nonsymmetric IAJDs) is 2.32 × 10^7 p/s; with BALB/c mice (setting [2]), 2.32 × 10^7 p/s. In the series on liver (imaging 6 h after injection), the “Organs … (weak/strong)” value is given as “liver (strong),”. Moreover, the “Organs with luminescence: liver” value in the series with liver is reported as “liver (strong),”. Moreover, the PDI in series [1] (setting [5]), in series [1] (setting [6]), in series [1] (setting [7]) and in series [1] (setting [4]) was 0.287 each time. The “Size (d, nm)” value in series [1] (setting [5]), in series [1] (setting [6]), in series [1] (setting [7]) and in series [1] (setting [4]) was 111 nm each time.

In the case of `CCCCCCCCCCCOc1cc(COC(=O)CCCN2CCN(CCO)CC2)cc(OCC(CC)CCCC)c1` (stereo not drawn) [IAJD 130, 3-((2-Ethylhexyl)oxy)-5-(undecyloxy)benzyl 4-(4-(2-hydroxyethyl)piperazin-1-yl)butanoate], the “In vivo activity (total flux, p/s)” value is on record as 1.18 × 10^8 p/s in the series with BALB/c mice (Table 19, nonsymmetric IAJDs) and 1.18 × 10^8 p/s with BALB/c mice (setting [2]). The “Organs with luminescence: liver” value in the series with liver is on record as “liver (weak),”. In addition, the PDI in series [1] (setting [3]) and in series [1] (setting [4]) was 0.271 each time. Besides, the “Size (d, nm)” value in series [1] (setting [3]) and in series [1] (setting [4]) was 172 nm each time.

In the case of `CCCCCCCCCCCCCCCCCOc1cc(COC(=O)CCCN2CCN(C)CC2)cc(OCCCCCCCCCCC)c1` [IAJD 126, 3-(Heptadecyloxy)-5-(undecyloxy)benzyl 4-(4-methylpiperazin-1-yl)butanoate], the “In vivo activity (total flux, p/s)” value in the series on BALB/c mice (Table 19, nonsymmetric IAJDs) is reported as 3.21 × 10^7 p/s. Further, in the series on liver, the “Organs with luminescence: liver” value is listed as “liver (weak),”. Also, in series [1] (setting [3]), the PDI came to 0.247 and the “Size (d, nm)” value is recorded as 158 nm. Further, in series [1] (setting [4]), the PDI was found to be 0.247 and the “Size (d, nm)” value is recorded as 158 nm.

In the case of `CCCCCCCCCCCCCCCOc1cc(COC(=O)CCCN2CCN(C)CC2)cc(OCCCCCCCCCCCC)c1` [IAJD 143, 3-(Dodecyloxy)-5-(pentadecyloxy)benzyl 4-(4-methylpiperazin-1-yl)butanoate], in the series on BALB/c mice (Table 19, nonsymmetric IAJDs), the “In vivo activity (total flux, p/s)” value was 1.28 × 10^7 p/s. In addition, the “Organs with luminescence: liver” value in the series on liver is “liver (strong),”. Moreover, in series [1] (setting [3]), the PDI turned out to be 0.270 and the “Size (d, nm)” value amounted to 169 nm. In series [1] (setting [4]), the PDI stood at 0.270 and the “Size (d, nm)” value was 169 nm.
